The values that follow come from the Kinase Knowledgebase extract (Sharma et al. 2016).

For the experiment, the target named is PIK3CG (human) (UniProt P48736). Description: Assessment of PIK3CG Kinase Activity.
PIK3CG (human), sequence (P48736 whole entry, looked up): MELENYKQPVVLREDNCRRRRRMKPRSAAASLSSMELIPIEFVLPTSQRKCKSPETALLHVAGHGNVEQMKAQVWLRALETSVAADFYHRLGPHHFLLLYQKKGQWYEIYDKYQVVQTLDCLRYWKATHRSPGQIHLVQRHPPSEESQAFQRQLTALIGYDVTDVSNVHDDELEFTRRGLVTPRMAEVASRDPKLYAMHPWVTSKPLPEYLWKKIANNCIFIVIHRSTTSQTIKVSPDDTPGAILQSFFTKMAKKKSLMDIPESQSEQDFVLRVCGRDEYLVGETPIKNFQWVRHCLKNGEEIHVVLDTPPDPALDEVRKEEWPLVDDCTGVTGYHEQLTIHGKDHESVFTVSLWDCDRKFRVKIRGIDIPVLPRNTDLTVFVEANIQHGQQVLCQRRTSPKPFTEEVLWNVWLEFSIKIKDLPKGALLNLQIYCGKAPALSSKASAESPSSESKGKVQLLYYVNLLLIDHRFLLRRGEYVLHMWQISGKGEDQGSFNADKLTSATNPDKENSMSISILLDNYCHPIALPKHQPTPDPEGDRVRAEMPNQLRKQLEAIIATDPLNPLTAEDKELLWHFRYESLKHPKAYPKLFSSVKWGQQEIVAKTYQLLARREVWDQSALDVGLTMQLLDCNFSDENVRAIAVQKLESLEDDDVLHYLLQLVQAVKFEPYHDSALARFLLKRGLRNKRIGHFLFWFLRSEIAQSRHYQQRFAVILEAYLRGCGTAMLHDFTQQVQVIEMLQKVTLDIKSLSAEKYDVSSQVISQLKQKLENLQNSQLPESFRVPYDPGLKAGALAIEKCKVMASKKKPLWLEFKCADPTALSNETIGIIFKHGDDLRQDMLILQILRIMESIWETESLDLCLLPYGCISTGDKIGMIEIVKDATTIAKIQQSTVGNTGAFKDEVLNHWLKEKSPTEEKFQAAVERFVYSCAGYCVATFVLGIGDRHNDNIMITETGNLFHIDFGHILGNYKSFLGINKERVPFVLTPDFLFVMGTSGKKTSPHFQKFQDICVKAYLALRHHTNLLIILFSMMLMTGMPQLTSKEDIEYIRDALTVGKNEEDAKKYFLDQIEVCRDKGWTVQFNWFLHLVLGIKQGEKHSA

One may read the IC50 as the midpoint of a concentration-inhibition curve. Higher therefore signals lower potency. As to `CN1CCC(n2nc(-c3cncnc3)c3c2-c2sc(NC(=O)NC[C@H]4CCCN4C(=O)N4CCCC4)nc2CC3)CC1`, the IC50 is less than 800 nM.
The molecule `CC(C)(C)OC(=O)N1CCC[C@H]1CNC(=O)Nc1nc2c(s1)-c1c(c(-c3cccnc3)nn1-c1ccccc1Cl)CC2` yielded an IC50 of less than 800 nM.
Molecule `O=C(NC[C@H]1CCCN1C(=O)OCc1ccccc1)Nc1nc2c(s1)-c1c(c(-c3cncnc3)nn1-c1ccccc1Cl)CC2` returned an IC50 of less than 800 nM.
Turning to `CC1(C)NC(=O)N(Cc2ccc(CNC(=O)Nc3nc4c(s3)-c3c(c(-c5cccnc5)nn3-c3ccccc3Cl)CC4)cc2)C1=O`, the IC50 is less than 800 nM.
Consider `O=C(NCCN1CCNC1=O)Nc1nc2c(s1)-c1c(c(-c3ccccc3)nn1-c1ccccc1Cl)CC2`, for which the IC50 was less than 800 nM.
Regarding `COc1cccc(CCNC(=O)Nc2nc3c(s2)-c2c(c(-c4cncnc4)nn2-c2ccccc2Cl)CC3)c1OC`, the IC50 was less than 800 nM.
As for `O=C(Nc1nc2c(s1)-c1c(c(-c3cccnc3)nn1-c1ccccc1Cl)CC2)N1CCC(N2Cc3ccccc3NC2=O)C1` (configuration not stated), the IC50 was less than 800 nM.
The value for `CN1CCC(O)C2(CCCN(C(=O)Nc3nc4c(s3)-c3c(c(-c5cccnc5)nn3-c3ccccc3Cl)CC4)C2)C1` (configuration not stated) was less than 800 nM.
On to `COc1cccc(CNC(=O)Nc2nc3c(s2)-c2c(c(-c4cncnc4)nn2-c2ccccc2Cl)CC3)c1`, for which the 50% inhibitory concentration (IC50) was less than 800 nM.
Molecule `CNC(=O)Nc1nc2c(s1)-c1c(c(-c3cccnc3)nn1-c1ccccc1Cl)CC2` showed an IC50 of less than 800 nM.
Take `O=C(NCCn1ccnc1)Nc1nc2c(s1)-c1c(c(-c3cncnc3)nn1-c1ccccc1Cl)CC2`: the IC50 was less than 800 nM.
Consider `Cn1cc(CNC(=O)Nc2nc3c(s2)-c2c(c(-c4cccnc4)nn2C2CCN(C4CCCC4)CC2)CC3)cn1`, for which the IC50 was less than 800 nM.
`CNC(=O)c1cccc(CNC(=O)Nc2nc3c(s2)-c2c(c(C4CC4)nn2-c2ccccc2Cl)CC3)c1` gave a half-maximal inhibitory concentration (IC50) of less than 800 nM.
In the case of `CC(C)c1cccc(CNC(=O)Nc2nc3c(s2)-c2c(c(-c4cccnc4)nn2C2CCN(C)CC2)CC3)c1`, the IC50 was less than 800 nM.
As to `CC(C)c1noc(CCNC(=O)Nc2nc3c(s2)-c2c(c(-c4ccccc4)nn2-c2cccc(Cl)c2)CC3)n1`, the IC50 was less than 800 nM.
`CCc1csc(CCNC(=O)Nc2nc3c(s2)-c2c(c(-c4cncnc4)nn2-c2ccccc2Cl)CC3)n1` came in with an IC50 of less than 800 nM.
The molecule `O=C(NCCc1ccncc1)Nc1nc2c(s1)-c1c(c(-c3cccnc3)nn1-c1ccccc1Cl)CC2` yielded an IC50 of less than 800 nM.
In the case of `CC(C)(C)OC(=O)Nc1cccc(CNC(=O)Nc2nc3c(s2)-c2c(c(-c4cccnc4)nn2-c2ccccc2Cl)CC3)c1`, the IC50 was less than 800 nM.
Regarding `O=C(NCc1cccc(C(=O)NC2CCCCC2)c1)Nc1nc2c(s1)-c1c(c(-c3cccnc3)nn1-c1ccccc1Cl)CC2`, the IC50 was less than 800 nM.
The value for `CN(C)C(=O)Nc1nc2c(s1)-c1c(c(-c3cccnc3)nn1-c1ccccc1Cl)CC2` was less than 800 nM; that for `O=C(O)CC1(CNC(=O)Nc2nc3c(s2)-c2c(c(-c4cccnc4)nn2-c2ccccc2Cl)CC3)CCCCC1` was less than 800 nM.
`O=C(NCc1ccc(CN2CCNC2=O)cc1)Nc1nc2c(s1)-c1c(c(-c3cccnc3)nn1-c1ccccc1Cl)CC2` displayed an IC50 of less than 800 nM.
For the molecule `COC(=O)CCNC(=O)Nc1nc2c(s1)-c1c(c(-c3cncnc3)nn1-c1ccccc1Cl)CC2`, the IC50 is less than 800 nM.
As for `CCn1cnc(CCNC(=O)Nc2nc3c(s2)-c2c(c(-c4ccccc4)nn2-c2cccc(Cl)c2)CC3)c1`, the IC50 was less than 800 nM.
Molecule `O=C(NCC1CCCNC1)Nc1nc2c(s1)-c1c(c(-c3cncnc3)nn1-c1ccccc1Cl)CC2` (configuration not stated) registered an IC50 of less than 800 nM.
Take `CN1CCN(Cc2cccc(NC(=O)Nc3nc4c(s3)-c3c(c(-c5cncnc5)nn3-c3ccccc3F)CC4)c2)CC1`: the IC50 is less than 800 nM.
`CN(C)C(=O)CNC(=O)Nc1nc2c(s1)-c1c(c(-c3cccnc3)nn1-c1ccccc1Cl)CC2` returned an IC50 of less than 800 nM.
In the case of `CN(C)C(=O)CNC(=O)Nc1nc2c(s1)-c1c(c(-c3ccccc3)nn1-c1ccccc1Cl)CC2`, the IC50 is less than 800 nM.
Consider `CCc1noc(CCNC(=O)Nc2nc3c(s2)-c2c(c(C4CC4)nn2-c2ccccc2Cl)CC3)n1`, for which the 50% inhibitory concentration (IC50) is less than 800 nM.
For the molecule `CN(C)C(=O)CCNC(=O)Nc1nc2c(s1)-c1c(c(-c3cccnc3)nn1-c1ccccc1Cl)CC2`, the IC50 is less than 800 nM.
`CC(C)(C)OC(=O)N1CCCC1CNC(=O)Nc1nc2c(s1)-c1c(c(Nc3ccccn3)nn1-c1ccccc1)CC2` (configuration not stated) returned an IC50 of less than 800 nM.
To `CC(C)(C)OC(=O)N1CC[C@H](CNC(=O)Nc2nc3c(s2)-c2c(c(-c4cncnc4)nn2-c2ccccc2Cl)CC3)C1` belongs less than 800 nM.
The value for `CCc1cnc(CCNC(=O)Nc2nc3c(s2)-c2c(c(-c4cccnc4)nn2-c2ccccc2Cl)CC3)o1` was less than 800 nM; that for `O=C(NCCc1nc(C2CC2)no1)Nc1nc2c(s1)-c1c(c(-c3cncnc3)nn1-c1ccccc1Cl)CC2` was less than 800 nM; that for `CCc1cnc(CCNC(=O)Nc2nc3c(s2)-c2c(c(-c4ccccc4)nn2-c2cccc(Cl)c2)CC3)o1` was less than 800 nM.
The molecule `CC(=O)N(C)c1cccc(CNC(=O)Nc2nc3c(s2)-c2c(c(-c4cccnc4)nn2C2CCN(C)CC2)CC3)c1` showed a half-inhibitory concentration (IC50) of less than 800 nM.
In the case of `Cn1ccnc1CNC(=O)Nc1nc2c(s1)-c1c(c(-c3cccnc3)nn1-c1ccccc1Cl)CC2`, the IC50 is less than 800 nM.
The molecule `CC(C)(C)OC(=O)N[C@H]1CC[C@H](CNC(=O)Nc2nc3c(s2)-c2c(c(-c4cccnc4)nn2-c2ccccc2Cl)CC3)CC1` displayed an IC50 of less than 800 nM.
Molecule `O=C(Nc1nc2c(s1)-c1c(c(-c3ccccc3)nn1-c1ccccc1Cl)CC2)NC1CCS(=O)(=O)C1` (configuration not stated) gave an IC50 of less than 800 nM.
`O=C(NCCN1CCOCC1)Nc1nc2c(s1)-c1c(c(-c3cncnc3)nn1-c1ccccc1Cl)CC2`: the IC50 was less than 800 nM.
To `CN1CCN(CCNC(=O)Nc2nc3c(s2)-c2c(c(-c4cncnc4)nn2-c2ccccc2Cl)CC3)CC1` belongs less than 800 nM.
The molecule `O=C(NC[C@H]1CCCN1)Nc1nc2c(s1)-c1c(c(-c3cncnc3)nn1-c1ccccc1Cl)CC2` showed an IC50 of less than 800 nM.
`Cn1cc(CCNC(=O)Nc2nc3c(s2)-c2c(c(-c4cncnc4)nn2-c2ccccc2Cl)CC3)cn1` had an IC50 of less than 800 nM.
As to `CN(C(=O)OC(C)(C)C)C1CCN(C(=O)Nc2nc3c(s2)-c2c(c(-c4cccnc4)nn2-c2ccccc2Cl)CC3)C1` (configuration not stated), the IC50 was less than 800 nM.
For the molecule `NS(=O)(=O)c1ccc(CNC(=O)Nc2nc3c(s2)-c2c(c(-c4cncnc4)nn2-c2ccccc2Cl)CC3)cc1`, the IC50 was less than 800 nM.
The molecule `CNC(=O)Nc1nc2c(s1)-c1c(c(-c3ccccc3)nn1-c1ccccc1Cl)CC2` registered an IC50 of less than 800 nM.
As to `O=C1CC[C@H](NC(=O)Nc2nc3c(s2)-c2c(c(-c4cccnc4)nn2-c2ccccc2Cl)CC3)CN1`, the IC50 is less than 800 nM.
`CC(C)(C)OC(=O)N1CCC(CNC(=O)Nc2nc3c(s2)-c2c(c(-c4cccnc4)nn2-c2ccccc2Cl)CC3)CC1` returned an IC50 of less than 800 nM.
The value for `O=C1CCC(CNC(=O)Nc2nc3c(s2)-c2c(c(-c4cccnc4)nn2-c2ccccc2Cl)CC3)N1` (configuration not stated) was less than 800 nM; that for `CN1CCC(n2nc(-c3cccnc3)c3c2-c2sc(NC(=O)NCc4cccc(NC(N)=O)c4)nc2CC3)CC1` was less than 800 nM; that for `NC(=O)N1Cc2ccc(CNC(=O)Nc3nc4c(s3)-c3c(c(-c5cccnc5)nn3-c3ccccc3Cl)CC4)cc2C1` was less than 800 nM.
For the molecule `O=C(NCCCC(=O)N1CCOCC1)Nc1nc2c(s1)-c1c(c(-c3ccccc3)nn1-c1ccccc1Cl)CC2`, the IC50 is less than 800 nM.
